Results on two molecules are retold here after paper PMC3276575, “Structural and Functional Insights into the Pilotin-Secretin Complex of the Type II Secretion System” (PLoS Pathogens, 2012).

Substitutions are numbered along the chain they refer to. Peptide text beside a SMILES is read from it.

Series [1] concerns the target T1, OutS_L96A (Dickeya dadantii, UniProt Q01567, L96A).
T1 construct: made in house; host or cells: E. coli (periplasm)
T1 sequence (Q01567 21-133 L96A): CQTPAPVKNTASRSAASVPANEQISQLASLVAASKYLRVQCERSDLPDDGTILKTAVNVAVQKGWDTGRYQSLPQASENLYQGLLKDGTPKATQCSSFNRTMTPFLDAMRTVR
As to the kind of experiment: Fluorescence quenching titration, secretin peptide binding to pilotin mutant L96A. Particulars: fluorescence at 340 nm, excitation 290 nm, 15°C, 1 µM pilotin. From the text: (§1) The pET-20b(+) plasmid expressing non-lipidated OutS (residues 26 to 132) fused to N-terminal PelB signal peptide has been constructed previously at a manner as the sequence of mature non-lipidated OutS after cleavage by the signal peptidase LepB is: MDP^26VKNT etc. To fuse a C-terminal 6His tag to non-lipidated OutS, SalI site was introduced at the end of outS sequence by using the primer (5′-ctt gac gcc atg cgc acc gtc gac tga ggg gga agc aac tgc) and the reverse complementary one (mutated bases are underlined). Then, by SalI/XhoI digestion the sequence coding for non-lipidated OutS was fused with that coding for 6His. Mutants of OutS were made using Strategene QuikChange and confirmed by sequencing.
(§2) Fluorescence data were collected using a Jasco FP-6300 Spectrofluorometer. […] Emission spectra were recorded at 15°C in steps of 2 nm from 310 to 400 nm. The fluorescence signal at 340 nm was plotted to calculate K d. Pilotin spectra was measured at 1 µM. […]
(§3) The Kd was determined by fitting the following equation: […]
(§4) where [PS] is the concentration of the pilotin/secretin complex, [P0] is the total concentration of the pilotin (1 µM), [S0] is the total concentration of the secretin peptide, and Kd is the dissociation constant. The observed fluorescence signal is then given by: F = FPS[PS] + FP[P]; as there are no tryptophans in the secretin peptide. […]

Series [2] deals with T2, OutS_S49R (Dickeya dadantii, UniProt Q01567, S49R).
T2 construct: made in house; host or cells: E. coli (periplasm)
T2 sequence (Q01567 21-133 S49R): T1 sequence (Q01567 21-133 L96A) with S29R, A76L
As to the kind of experiment: Fluorescence quenching titration, secretin peptide binding to pilotin mutant S49R. The conditions noted are these: fluorescence at 340 nm, excitation 290 nm, 15°C, 1 µM pilotin.
Description: as §1, §2, §3, §4

Series [3] has as its target T3, OutS_L100A (Dickeya dadantii, UniProt Q01567, L100A).
T3 construct: made in house; host or cells: E. coli (periplasm)
T3 sequence (Q01567 21-133 L100A): T1 sequence (Q01567 21-133 L96A) with A76L, L80A
As to the kind of experiment: Fluorescence quenching titration, secretin peptide binding to pilotin mutant L100A. Particulars: fluorescence at 340 nm, excitation 290 nm, 15°C, 1 µM pilotin.
Description: as §1, §2, §3, §4

In series [4] the target is T4, OutS_Q114A (Dickeya dadantii, UniProt Q01567, Q114A).
T4 construct: made in house; host or cells: E. coli (periplasm)
T4 sequence (Q01567 21-133 Q114A): T1 sequence (Q01567 21-133 L96A) with A76L, Q94A
As to the kind of experiment: Fluorescence quenching titration, secretin peptide binding to pilotin mutant Q114A. Particulars: fluorescence at 340 nm, excitation 290 nm, 15°C, 1 µM pilotin.
Description: as §1, §2, §3, §4

Series [5] relates to E. coli NM522 cells. As to the kind of experiment: Membrane location by flotation sucrose gradient centrifugation. In kind it is cell-based. The conditions noted are these: with pilotin OutS, immunoblot. From the text: (§5) Figure 4 In vivo determination of secretin interactions with pilotin. Removal of the extreme C-terminal region of the secretin results in mislocalization of the secretin to the inner membrane (A) Sequence of the C-terminus of Dickeya dadantii secretin (OutD) along with the secondary structure prediction for this region; the predicted three helices are marked “H”. The sequences of the three secretin deletion mutants (OutDΔC1 to OutDΔC3) and the C-terminal secretin peptides used are shown. (B) Stabilization of truncated derivatives of the secretin (OutD) by pilotin (OutS) in vivo. E. coli MC3 cells expressing an OutD derivative (indicated above) and either OutS (+) or empty pACT3 vector (−) were grown for 12 h at 30°C in LB medium and then analyzed by immunoblotting with OutD antibodies. In the same cultures, β-galactosidase activity was assessed to estimate expression of pspA-lacZ. An elevated level of pspA reflects mislocalization of the corresponding secretin derivative to the inner membrane. […] The whole membrane fraction from E. coli NM522 cells coexpressing the indicated secretin derivatives and pilotin was separated by flotation sucrose gradient centrifugation and analyzed by immunoblotting with OutD- antibodies or stained with Coomassie G-250 to detect the major porins, which reflect the position of the outer membrane. […]

The test system of series [6] is pspA-lacZ. As to the kind of experiment: pspA-lacZ induction (β-galactosidase activity). The format is cell-based. Particulars: E. coli MC3, 12 h at 30°C in LB.
Description: as §5

Series [7] concerns inner membrane. The conditions noted are these: ref [21]; cited from earlier work. An excerpt: The type II secretion system spans both the inner and outer bacterial membranes, [18]. It consists of an inner membrane subcomplex, periplasmic pseudopilins and the outer membrane secretin [19]. There have been considerable recent advances in our understanding of the T2SS secretin. First the structure of the N-terminal periplasmic domains N0, N1, and N2 in complex with a nanobody was elucidated (PDB code 3EZJ) and secondly a cryo EM reconstruction of the secretin itself has been described. In the absence of pilotin the D. dadantii secretin (OutD) mislocates to the inner ...

With `CC[C@H](C)[C@H](NC(=O)[C@H](CO)NC(=O)[C@H](CO)NC(=O)[C@H](CCC(N)=O)NC(=O)[C@@H](NC(=O)[C@H](CCC(N)=O)NC(=O)[C@H](CCCNC(=N)N)NC(=O)[C@H](Cc1ccccc1)NC(=O)[C@@H](NC(=O)[C@H](Cc1ccc(O)cc1)NC(=O)[C@@H](N)[C@@H](C)O)[C@@H](C)O)C(C)C)C(=O)N[C@@H](CO)C(=O)N[C@@H](CC(=O)O)C(=O)N[C@@H](Cc1ccccc1)C(=O)N[C@@H](Cc1ccc(O)cc1)C(=O)N[C@@H](CCCCN)C(=O)N1CCC[C@H]1C(=O)N[C@@H](CCC(=O)O)C(=O)O` [18 residue secretin peptide] (H-TYTFRQVQSSISDFYKPE-OH), the Kd in series [1] is 5300 ± 1200 nM; in series [2], over 200000 nM; in series [3], 2100 ± 500 nM; in series [4], 1100 ± 350 nM.

B1: OutD: Dickeya dadantii secretin of the type II secretion system, UniProt Q01565 (protein, UniProt Q01565 28-710, looked up)
Secretin OutD: AEFSASFKGTDIQEFINTVSKNLNKTVIIDPTVRGTISVRSYDMMNEGQYYQFFLSVLDVYGFSVVPMDNGVLKVIRSKDAKSSSIPLANNEQPGIGDELVTRVVPLNNVAARDLAPLLRQLNDNAGAGTVVHYEPSNVLLMTGRAAVIKRLVDIVNTVDKTGDREMVTVPLTYASAEDVAKLVNDLNKSDEKNALPSTMLANVVADGRTNSVVVSGEENARQRAVEMIRQLDRKQVVQGGTKVIYLKYAKALDLIEVLAGNGTSGNRNSSSSNASRPSSPRSGSSSNSNSSSGSSGSSSGSSSSSSSSSSMGFGSAFGSTSSSGGRTITIQGKEVTVRAHDQTNSLIITAPPDIMRDLEQVINQLDIRRPQVLVEAIIAEIQDADGLNLGIQWANKRAGMTQFTNTGIPISTAVIGTDQFRSNGTLTTAYASALSSFNGVTAGFYRGNWSMLLTALSSDSKNDVLATPSIVTLDNMEATFNVGQEVPVLTGSQTTSADNIFNTVERKTVGIKLRVKPQINEGDSVLLQIEQEVSSVADSNSSTNSSLGVTFNTRTVNNAVMVTNGETVVVGGLLDKTSVESNDKVPLLGDIPWLGSLFRSKSQEVRKRNLMLFLRPTIIRDPGQFQEASINKYRSFNNEQQQQRGEGNGVLDNNTLRLSGGNTYTFRQVQSSISDFYKPEGR
In the case of B1, the “outer membrane location / targeting” value in series [5] is on record as “promotes the outer membrane location”. Also, the “pspA (β-galactosidase activity)” value in series [6] (OutS: +) came to 800; in series [6] (OutS: − (empty pACT3 vector)), 1100. Also, the “location of secretin in absence of pilotin” value in series [7] is “mislocates to the inner membrane”.

A word on the Kd: it is the concentration at which binding is half-saturated. Read a low Kd as a tighter complex.
